From ChEMBL document CHEMBL4665802, “Design, Synthesis, and Structure-Activity Relationships of Indoline-Based Kelch-like ECH-Associated Protein 1-Nuclear Factor (Erythroid-Derived 2)-Like 2 (Keap1-Nrf2) Protein-Protein Interaction Inhibitors” (J Med Chem, 2020)
The source made the active and inactive calls. No cut-off for these calls is given here.

How the values were obtained:
Mus musculus [1] = assay: Cardioprotective activity in LPS-stimulated sepsis in C57BL/6 mouse assessed as reduction in heart tissue damage at 10 mg/kg, ip qd administered for 3 days prior to LPS stimulation and measured after 12 hrs by hematoxylin and eosin staining based microscopy; assay type: functional, organism-based; settings: time 3.5 day
[2] = Metabolic stability in human liver microsome assessed as parent compound remaining at 1 uM preincubated for 5 mins followed by NADPH addition and measured after 45 mins by LC-MS/MS analysis; assay type: ADME; settings: liver microsomes, time 50 min, read-out: Stabilty
[3] = AUC (0 to infinity) in rat at 5 mg/kg, iv by LC-MS/MS analysis; assay type: ADME, organism-based; parameters: time infinity, route intravenous, dose 5 mg/kg; settings: in vivo
H9c2 [4] = assay: Antioxidant activity against LPS-induced injury in rat H9c2 cells assessed as decrease in ROS level at 10 uM pretreated for 12 hrs followed by LPS addition measured after 12 hrs by H2DCFDA probe based flow cytometry; assay type: functional, cell-based; settings: time 24.0 hrs
H9c2 [5] = assay: Upregulation of Nrf2 protein levels in rat H9c2 cells incubated for 12 hrs by Western blot analysis; assay type: functional, cell-based; settings: dose microM 0.1-10, time 12.0 hrs
[6] = Permeability of the compound at pH 7.4 incubated for 4 hrs by PAMPA; assay type: ADME; settings: read-out: permeability
CYP3A4 = CYP3A4 (Homo sapiens, UniProt P08684); assay: Inhibition of CYP3A4 (unknown origin) at 10 uM using […] as substrate preincubated for 5 mins followed by NADPH addition and measured after 20 mins by LC-MS/MS analysis relative to control; assay type: ADME
CYP3A4, sequence (P08684 whole entry): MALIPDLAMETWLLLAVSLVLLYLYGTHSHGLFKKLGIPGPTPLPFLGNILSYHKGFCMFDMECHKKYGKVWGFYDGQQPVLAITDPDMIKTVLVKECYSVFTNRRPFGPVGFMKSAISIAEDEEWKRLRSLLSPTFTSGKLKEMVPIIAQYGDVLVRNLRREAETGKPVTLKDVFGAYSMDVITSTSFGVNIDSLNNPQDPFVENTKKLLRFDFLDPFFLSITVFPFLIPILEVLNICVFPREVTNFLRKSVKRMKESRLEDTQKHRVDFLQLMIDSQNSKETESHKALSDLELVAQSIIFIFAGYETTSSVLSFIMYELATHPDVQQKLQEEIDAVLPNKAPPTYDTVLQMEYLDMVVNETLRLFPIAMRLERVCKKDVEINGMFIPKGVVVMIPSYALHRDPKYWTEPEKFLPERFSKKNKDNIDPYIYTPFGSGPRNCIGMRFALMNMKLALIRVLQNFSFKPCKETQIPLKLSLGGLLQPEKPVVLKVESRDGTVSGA

[7] = Metabolic stability in human liver microsome assessed as half-life at 1 uM preincubated for 5 mins followed by NADPH addition and measured after 45 mins by LC-MS/MS analysis; assay type: ADME; settings: liver microsomes
[8] = molecular target: T1, KEAP1/NRF2 (Rattus norvegicus) (UniProt O54968+P57790); assay: Inhibition of Keap1-Nrf2 protein-protein interaction in rat H9c2 cells assessed as upregulation of NQO1 expression incubated for 12 hrs by Western blot analysis; assay type: cell-based; settings: dose microM 0.1-10, time 12.0 hrs
[9] = molecular target: T1, KEAP1/NRF2 (Rattus norvegicus); assay: Inhibition of Keap1-Nrf2 protein-protein interaction in rat H9c2 cells assessed as upregulation of GCLM mRNA expression incubated for 12 hrs by Trizol reagent based qRT-PCR analysis; assay type: cell-based; settings: dose microM 0.1-10, time 12.0 hrs
Mus musculus [10] = assay: Cardioprotective activity in LPS-stimulated sepsis in C57BL/6 mouse assessed as reduction in histological score at 10 mg/kg, ip qd administered for 3 days prior to LPS stimulation and measured after 12 hrs by hematoxylin and eosin staining based microscopy; assay type: functional, organism-based; settings: time 3.5 day
[11] = molecular target: T1, KEAP1/NRF2 (Rattus norvegicus); assay: Inhibition of Keap1-Nrf2 protein-protein interaction in rat H9c2 cells assessed as upregulation of HO1 expression incubated for 12 hrs by Western blot analysis; assay type: cell-based; settings: dose microM 0.1-10, time 12.0 hrs
Mus musculus [12] = assay: Antiinflammatory activity in LPS-stimulated sepsis in C57BL/6 mouse assessed as decrease in TNFalpha levels at 10 mg/kg, ip qd administered for 3 days prior to LPS stimulation and measured after 12 hrs by ELISA; assay type: functional, organism-based; settings: time 3.5 day
Mus musculus [13] = assay: Antioxidant activity against LPS-induced injury in C57BL/6 mouse assessed as reduction in ROS levels at 10 to 40 mg/kg, ip qd administered for 3 days prior to LPS stimulation and measured after 12 hrs by H2DCFDA probe based flow cytometry; assay type: functional, organism-based; settings: dose mg/kg 10-40, time 3.5 day
[14] = molecular target: T1, KEAP1/NRF2 (Rattus norvegicus); assay: Inhibition of Keap1-Nrf2 protein-protein interaction in rat H9c2 cells assessed as upregulation of HO1 expression at 10 uM incubated up to 24 hrs by Western blot; assay type: cell-based; settings: time hrs <=24
H9c2 [15] = assay: Antiinflammatory activity against LPS-induced sepsis in rat H9c2 cells assessed as decrease in secretion of IL-6 at 1 to 10 uM pretreated for 12 hrs followed by LPS addition measured after 12 hrs by sandwich ELISA; assay type: functional, cell-based; settings: dose microM 1-10, time 24.0 hrs
H9c2 [16] = assay: Cytotoxicity against rat H9c2 cells assessed as reduction in cell viability up to 100 uM incubated for 24 hrs by MTT assay; assay type: cell-based; settings: h9c2, 24 h
H9c2 [17] = assay: Cytoprotective activity against LPS-induced sepsis in rat H9c2 cells assessed as increase in cell viability pretreated with compound for 12 hrs followed by LPS addition measured after 12 hrs by MTT assay; assay type: functional, cell-based; settings: dose microM 0.1-10, time 24.0 hrs
Mus musculus [18] = assay: Upregulation of HO1 expression in LPS-stimulated C57BL/6 mouse model of sepsis at 10 to 40 mg/kg, ip qd administered for 3 days prior to LPS stimulation and measured after 12 hrs by Western blot analysis; assay type: functional, organism-based; settings: dose mg/kg 10-40, time 3.5 day
H9c2 [19] = assay: Antioxidant activity against LPS-induced injury in rat H9c2 cells assessed as increase in GSH/GSSG ratio at 0.1 to 10 uM pretreated for 12 hrs followed by LPS addition measured after 12 hrs; assay type: functional, cell-based; settings: dose microM 0.1-10, time 24.0 hrs
[20] = Cmax in rat at 5 mg/kg, iv by LC-MS/MS analysis; assay type: ADME, organism-based; parameters: route intravenous, dose 5 mg/kg; settings: in vivo
CYP2D6 = CYP2D6 (Homo sapiens, UniProt P10635); assay: Inhibition of CYP2D6 (unknown origin) at 10 uM using promethazine as substrate preincubated for 5 mins followed by NADPH addition and measured after 20 mins by LC-MS/MS analysis relative to control; assay type: ADME; settings: probe promethazine
CYP2D6, sequence (P10635 whole entry): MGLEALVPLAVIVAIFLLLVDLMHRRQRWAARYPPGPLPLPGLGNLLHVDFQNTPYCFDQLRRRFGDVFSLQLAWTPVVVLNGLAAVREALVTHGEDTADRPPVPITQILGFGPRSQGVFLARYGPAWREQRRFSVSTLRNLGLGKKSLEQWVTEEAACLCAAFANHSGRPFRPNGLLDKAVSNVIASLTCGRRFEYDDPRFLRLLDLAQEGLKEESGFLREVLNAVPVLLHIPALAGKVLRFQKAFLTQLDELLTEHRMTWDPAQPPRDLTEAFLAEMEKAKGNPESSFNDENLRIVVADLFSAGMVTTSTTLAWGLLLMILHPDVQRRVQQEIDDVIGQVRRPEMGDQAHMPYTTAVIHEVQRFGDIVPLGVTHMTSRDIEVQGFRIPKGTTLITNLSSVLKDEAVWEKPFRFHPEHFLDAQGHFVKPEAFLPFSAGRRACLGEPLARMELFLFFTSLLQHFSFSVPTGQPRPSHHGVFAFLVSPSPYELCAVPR

H9c2 [21] = assay: Upregulation of Nrf2 mRNA expression in rat H9c2 cells at 10 uM incubated for 4 to 24 hrs by Trizol reagent based qRT-PCR analysis; assay type: functional, cell-based; settings: time hrs 4-24
[22] = molecular target: T1, KEAP1/NRF2 (Rattus norvegicus); assay: Inhibition of Keap1-Nrf2 protein-protein interaction in rat H9c2 cells assessed as upregulation of NQO1 expression at 10 uM incubated up to 24 hrs by Western blot; assay type: cell-based; settings: time hrs <=24
[23] = molecular target: T1, KEAP1/NRF2 (Rattus norvegicus); assay: Inhibition of Keap1-Nrf2 protein-protein interaction in rat H9c2 cells assessed as upregulation of NQO1 mRNA expression incubated for 12 hrs by Trizol reagent based qRT-PCR analysis; assay type: cell-based; settings: dose microM 0.1-10, time 12.0 hrs
Mus musculus [24] = assay: Upregulation of GCLM expression in LPS-stimulated C57BL/6 mouse model of sepsis at 10 to 40 mg/kg, ip qd administered for 3 days prior to LPS stimulation and measured after 12 hrs by Western blot analysis; assay type: functional, organism-based; settings: dose mg/kg 10-40, time 3.5 day
[25] = MRT (0 to infinity) in rat at 5 mg/kg, iv by LC-MS/MS analysis; assay type: ADME, organism-based; settings: in vivo

## COc1ccc(S(=O)(=O)NC(=O)CN(c2cccc3c2CCN3C(C(=O)NS(=O)(=O)c2ccc(C)cc2OC)c2cccc(OC)c2)S(=O)(=O)c2ccc(OC)cc2)cc1 (configuration not stated)
Mus musculus [1]
  Activity: Active
[2]
  remaining at 0.75 h, 1 µM: 74.4%
[3]
  AUC(0-inf): 47000 ng·h/mL
H9c2 [4]
  Activity: Active
H9c2 [5]
  Activity: Dose-dependent effect
[6]
  Papp at 4 h: 5.27 ×10⁻⁶ cm/s
CYP3A4
  inhibition at 20 min, 10 µM: 46.9%
[7]
  half-life at 1 µM: 2.52 h
[8]
  inhibition: Dose-dependent effect
[9]
  inhibition: Dose-dependent effect
Mus musculus [10]
  Activity: Active
[11]
  inhibition: Dose-dependent effect
Mus musculus [12]
  Activity: Active
Mus musculus [13]
  Activity: Active
[14]
  inhibition: Active
H9c2 [15]
  Activity: Active
H9c2 [16]
  Activity: Non-Toxic
H9c2 [17]
  Activity: Dose-dependent effect
Mus musculus [18]
  Activity: Active
H9c2 [19]
  Activity: Active
[20]
  Cmax: 78.2 µg/mL
CYP2D6
  inhibition at 20 min, 10 µM: 19.9%
H9c2 [21]
  Activity: Active
[22]
  inhibition: Active
[23]
  inhibition: Dose-dependent effect
Mus musculus [24]
  Activity: Active
[25]
  MRT inf: 1.1 h
